Tests used:
Experiment in all cases: relative viability (nuclei count vs DMSO), 5 days (fraction); higher = more cells survive
[1] = compound: CC[C@@H](C)CNCC(=O)N1CCC2=C([C@@H]1COC3=CC=CC(=C3)C)C=CS2 [RU-SKI 43] + O=C(CCCCCCC(=O)Nc1ccccc1)NO [Vorinostat] (partner 1 µM)
Summary of the method: (§1)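 After 5 days of treatment, lung cancer cells in 1536-well plates were fixed and stained in a single step (final 0.05% Triton X-100, 1% formaldehyde, 1 ug/ml Hoechst) and their nuclei counted on 4× images. Treatment had been applied by pin tool the day after seeding as one drug alone or as a fixed anchor-drug dose with five library-drug doses (not always all listed) in √10 steps. Relative viability is the nuclei count of treated wells divided by that of vehicle wells, and values are medians of duplicate plates.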

[2] = compound: Cn1cc(-c2cnc3ccc4ccc(CS(=O)(=O)NCc5ccccn5)cc4c(=O)c3c2)cn1 [MK-8033] + CC1(C)CCC(c2ccc(Cl)cc2)=C(CN2CCN(c3ccc(C(=O)NS(=O)(=O)c4ccc(N[C@H](CCN5CCOCC5)CSc5ccccc5)c(S(=O)(=O)C(F)(F)F)c4)cc3)CC2)C1 [Navitoclax] (partner 0.5 µM)
Summary of the method: as §1

[3] = compound: Cn1cc(-c2cnc3ccc4ccc(CS(=O)(=O)NCc5ccccn5)cc4c(=O)c3c2)cn1 [MK-8033] + O=C(c1cc(Cc2n[nH]c(=O)c3ccccc23)ccc1F)N1CCN(C(=O)C2CC2)CC1 [Olaparib] (partner 8 µM)
Summary of the method: as §1

[4] = compound: CC[C@@H](C)CNCC(=O)N1CCC2=C([C@@H]1COC3=CC=CC(=C3)C)C=CS2 [RU-SKI 43] + C[C@@H](Oc1cc(-c2cnn(C3CCNCC3)c2)cnc1N)c1c(Cl)ccc(F)c1Cl [Crizotinib] (partner 1 µM)
Summary of the method: as §1

| Cell Line | relative viability ([1]; first compound 0.1 µM) | relative viability ([1]; first compound 0.3162 µM) | relative viability ([1]; first compound 1 µM) | relative viability ([1]; first compound 3.162 µM) | relative viability ([1]; first compound 10 µM) | relative viability ([2]; first compound 0.02 µM) | relative viability ([2]; first compound 0.06325 µM) | relative viability ([2]; first compound 0.2 µM) | relative viability ([2]; first compound 0.6325 µM) | relative viability ([2]; first compound 2 µM) | relative viability ([3]; first compound 0.02 µM) | relative viability ([3]; first compound 0.06325 µM) | relative viability ([3]; first compound 0.2 µM) | relative viability ([3]; first compound 0.6325 µM) | relative viability ([3]; first compound 2 µM) | relative viability ([4]; first compound 0.1 µM) | relative viability ([4]; first compound 0.3162 µM) | relative viability ([4]; first compound 1 µM) | relative viability ([4]; first compound 3.162 µM) | relative viability ([4]; first compound 10 µM) |
| --- | --- | --- | --- | --- | --- | --- | --- | --- | --- | --- | --- | --- | --- | --- | --- | --- | --- | --- | --- | --- |
| LU99A | 0.476 | 0.558 | 0.479 | 0.447 | 0.359 | 0.751 | 0.667 | 0.794 | 0.819 | 0.593 | 0.28 | 0.222 | 0.223 | 0.266 | 0.22 | 0.542 | 0.565 | 0.595 | 0.6 | 0.469 |
| NCI-H1915 | 0.563 | 0.602 | 0.639 | 0.54 | 0.549 | 0.812 | 0.699 | 0.801 | 0.811 | 0.783 | 0.243 | 0.241 | 0.267 | 0.252 | 0.259 | 0.913 | 1.36 | 0.938 | 0.957 | 0.959 |
| H3255 | 0.838 | 0.763 | 1.1 | 0.851 | 0.769 | 0.577 | 0.446 | 0.441 | 0.418 | 0.485 | 0.567 | 0.504 | 0.561 | 0.57 | 0.537 | 0.858 | 0.885 | 0.976 | 0.791 | 0.874 |
| BEN | 0.621 | 0.531 | 0.665 | 0.639 | 0.546 | 0.067 | 0.0568 | 0.0526 | 0.0753 | 0.0791 | 1.13 | 1.01 | 0.986 | 0.985 | 1.01 | 0.933 | 1.14 | 1.03 | 0.865 | 0.758 |
| NCI-H23 | 0.473 | 0.602 | 0.571 | 0.587 | 0.48 | 0.938 | 0.777 | 0.682 | 0.779 | 0.837 | 0.295 | 0.307 | 0.221 | – | 0.332 | 0.472 | 0.42 | 0.451 | 0.598 | 0.39 |
| NCI-H1944 | 0.548 | 0.623 | 0.522 | 0.499 | 0.513 | 1.15 | – | 0.991 | 1.02 | 1.03 | 0.402 | 0.365 | 0.39 | 0.39 | 0.415 | 1.17 | 1.19 | 1.25 | 1.25 | 0.991 |
| NCI-H441 | 0.752 | 0.97 | 0.97 | 0.741 | 0.849 | 0.566 | 0.448 | 0.569 | 0.573 | 0.415 | 0.628 | 0.446 | 0.56 | 0.529 | 0.59 | 0.662 | 0.655 | 0.637 | 0.686 | 0.641 |
| NCI-H1437 | 0.839 | 0.958 | 0.84 | 0.798 | 0.671 | 1.03 | 1.03 | 1.01 | 1 | 0.953 | 0.632 | 0.619 | 0.596 | 0.633 | 0.598 | 0.873 | 1.29 | 1.11 | 0.93 | 0.875 |
| HARA | 0.568 | 0.52 | 0.485 | 0.517 | 0.548 | 1.1 | 1.14 | 1.15 | 1.1 | 1.16 | 0.558 | 0.542 | 0.761 | 0.732 | 0.639 | 1.16 | 0.971 | 1.08 | 1.18 | 0.975 |
| LOU-NH91 | 1.01 | 0.871 | 1.03 | 0.979 | 0.902 | 0.686 | – | 0.674 | 0.675 | 0.695 | 0.893 | 0.679 | 0.842 | 0.913 | 0.882 | 0.795 | 0.818 | 0.719 | 0.754 | 0.715 |
| COR-L 105 | 0.8 | 0.913 | 0.796 | 0.886 | 0.895 | 0.689 | 0.777 | 0.779 | 0.694 | 0.906 | 0.846 | 0.673 | 0.7 | 0.637 | 0.701 | 0.682 | 0.697 | 0.858 | 0.712 | 0.438 |
| NCI-H838 | 0.745 | 0.842 | 0.733 | 0.744 | 0.633 | 1.13 | 1.14 | 1.01 | 1.22 | 1.08 | 0.783 | 0.727 | 0.707 | 0.753 | 0.716 | 0.904 | 0.98 | 0.826 | 0.794 | 0.75 |
| NCI-H1975 | 0.736 | 0.781 | 0.749 | 0.723 | 0.618 | 1.12 | 0.92 | 1.08 | 1.08 | 1.07 | 0.721 | 0.757 | 0.789 | 0.77 | 0.78 | 1.04 | 1.3 | 1.12 | 0.925 | 0.709 |
| SK-MES-1 | 1.15 | 1.45 | 1.28 | 1.21 | 1.1 | 1.23 | 1.16 | 1.16 | 1.23 | 1.18 | 0.682 | 0.658 | 0.677 | 0.76 | 0.717 | 0.862 | 1.07 | 1.06 | 1.09 | 0.98 |
| NCI-H2170 | 0.831 | 1.06 | 0.763 | 0.843 | 0.889 | 0.559 | 0.55 | 0.612 | 0.586 | 0.597 | 0.602 | 0.539 | 0.648 | 0.59 | 0.536 | 1.26 | 1.42 | 1.49 | 1.22 | 1.07 |

From the supplement of paper PMC10307832
